Laboratory results as given in patent US20050026845A1, “Pharmaceutical/cosmetic compositions comprising the lysine-D-proline-valine tripeptide” (priority 1995, published 2005).
Non-standard residues stand in square brackets, D forms with d. Residues, ends and D or L forms follow the SMILES beside them.

Columns and labels:
[1] = tested on: interleukin-1α; test: Production of interleukin-1α in the supernatant of plucked hairs (ELISA); format: cell-based, human; conditions: 20 hours; for % of inhibition: IL-1α in supernatant; for IL-1α: plucked hairs from inflammatory alopecia, control 21.8 pg/ml
Procedure: Dose-response activity of the Ac-LPV-NH2* tripeptide with respect to the production of interleukin-1α in the supernatant of plucked hairs emanating from a patient afflicted with inflammatory alopecia.
Plucked hairs were removed from the region of the vertex of a volunteer suffering from inflammatory alopecia. They were placed in a Williams' survival medium E (marketed by Gibco BRL) containing penicillin G (100 units/ml), streptomycin S (100 μg/ml) and amphotericin (250 ng/ml), in the presence or in the absence (control) of the Ac-LPV-NH2* tripeptide, synthesized to order by Neosystem S.A. (Strasbourg), at the doses indicated. After incubating for 20 hours, the culture supernatants were collected in a tube and then centrifuged for 5 minutes at 14,000 revolutions/minute (Eppendorff centrifuge, model 5415C). The supernatants were then collected in a clean tube and placed at 4° C.
The interleukin-1α concentration was then evaluated with respect to 100 μl of supernatant by means of a Biotrak ELISA kit marketed by Amersham, according to the manufacturer's instructions.

[2] = tested on: IL-1α; test: Expression of IL-1α mRNA in plucked hairs (RT-PCR, relative to GAPDH), 3 h 30 min; format: cell-based, human; conditions: treated batch vs control batch (100%), dose not given
Procedure: (§1) Inhibition of the expression of the messenger RNAs of proinflammatory and inflammatory cytokines in response to the Ac-LPV-NH2* tripeptide.
(§2) Ten plucked hairs were removed from the region of the vertex of a volunteer suffering from inflammatory alopecia. These were placed in a Williams' survival medium E (marketed by Gibco BRL) containing penicillin G (100 units/ml), streptomycin S (100 μg/ml) and amphotericin (250 ng/ml), in the presence (treated batch) or in the absence (control) of the Ac-LPV-NH2* tripeptide, synthesized to order by Neosystem S.A., (Strasbourg).
(§3) After incubating for 3 h, 30 min, the messenger RNAs corresponding to these two batches of hair were purified from a “quick prep mRNA purification kit” marketed by Pharmacia. DNAs complementary to these mRNAs were then prepared by means of a reverse transcription kit marketed by Pharmacia, the manufacturer's instructions being followed, and then subjected to a polymerization chain reaction (PCR) stage by using primers specific for the mRNAs of glyceraldehyde-3-phosphate dehydrogenase (GAPDH), of IL-1α, of the type-1 IL-1 receptor and of the type-2 IL-1 receptor. The amounts of amplified DNA were then evaluated by electrophoresis on 1.5% agarose gel in the presence of ethidium bromide. […]

[3] = tested on: type-1 IL-1 receptor (IL-1R1); test: Expression of type-1 IL-1 receptor mRNA in plucked hairs (RT-PCR, relative to GAPDH), 3 h 30 min; format: cell-based, human; conditions: treated batch vs control batch (100%), dose not given
Procedure: as §1, §2, §3

[4] = tested on: IL-1α; test: Expression of the mRNAs of IL-1α from the IL-1α/GAPDH ratio, plucked hairs of two donors, 20 hours; format: cell-based, human
Procedure: Inhibiting effect of Ac-LPV-NH2* on the expression of the mRNAs of IL-1α, calculated from the IL-1α/GAPDH ratio.
5 hairs were plucked from two different donors and were then incubated for 20 hours at 37° C. (5% CO2) in Williams' medium E supplemented with antibiotics and with glutamine and in the presence of Ac-LPV-NH2* at the concentrations indicated. A control was carried out in which there was no peptide added.

[5] = tested on: catagenic papilla cells; test: Inhibition of IL-1α-induced production of PGE2 by catagenic papilla cells cultured in vitro; format: cell-based; conditions: 10 μM tripeptide; for PGE2: IL-1α 10 ng/ml, control 9.2, IL-1α alone 100.2; for % inhibition: PGE2 induced by IL-1α 10 ng/ml
Procedure: Measurement of the inhibition of the production of PGE2 by catagenic papilla cells cultured in vitro.
The cells (1,000 per well), at the 24th passage, were incubated in 199 medium marketed by Gibco in the presence of 1% foetal calf serum and of antibiotics. 20 hours later, the medium was replaced by an identical medium, but containing the tripeptides to be evaluated at a final concentration of 10 μM. 5 hours later, interleukin-1α was added at a final concentration of 10 ng/ml. 20 hours later, the PGE2 levels produced by the cultured papilla cells were evaluated by means of a Biotrack kit marketed by Amersham, the manufacturer's instructions being followed. This method thus made it possible to evaluate the inhibiting effect of these tripeptides on the production of PGE2 induced by a proinflammatory cytokine: interleukin-1α.

Structure (SMILES) | % of inhibition ([1]; dose 1 μM) | IL-1α ([1]; dose 1 μM) | % of inhibition ([1]; dose 10 μM) | IL-1α ([1]; dose 10 μM) | % of expression IL-1α [2] | % of expression IL-1R1 [3] | expression of the mRNAs of IL-1α, % of the control ([4]; donor A, 1 μM) | expression of the mRNAs of IL-1α, % of the control ([4]; donor A, 10 μM) | expression of the mRNAs of IL-1α, % of the control ([4]; donor B, 0.1 μM) | expression of the mRNAs of IL-1α, % of the control ([4]; donor B, 1 μM) | expression of the mRNAs of IL-1α, % of the control ([4]; donor B, 10 μM) | PGE2 [5] | % inhibition [5]
CC(=O)N[C@H](CCCCN)C(=O)N1CCC[C@@H]1C(=O)N[C@@H](C(N)=O)C(C)C [Acetyl-(D) Lys-(D) Pro-(D) Val-NH2] (Ac-[dK]-[dP]-[dV]-NH2) | 49% | 11.1 pg/mL | 72% | 6.1 pg/mL | 0% | 26% | 51% | 28% | 53% | 62% | 28.7% | 28.0 pg/mL | 78%
CC(=O)N[C@@H](CCCCN)C(=O)N1CCC[C@H]1C(=O)N[C@H](C(N)=O)C(C)C [Acetyl-(L) Lys-(L) Pro-(L) Val-NH2, reference compound] (Ac-Lys-Pro-Val-NH2) |  |  |  |  |  |  |  |  |  |  |  | 10.0 pg/mL | 90%
CC(=O)N[C@@H](CCCCN)C(=O)N1CCC[C@@H]1C(=O)N[C@H](C(N)=O)C(C)C [Ac-L-(D)P-V-NH2***, Acetyl-(L) Lys-(D) Pro-(L) Val-NH2] (Ac-Lys-[dP]-Val-NH2) |  |  |  |  |  |  |  |  |  |  |  | 24.6 pg/mL | 75%
